Measured values: PMC9097471, “Development of Selective Phosphatidylinositol 5-Phosphate 4-Kinase γ Inhibitors with a Non-ATP-competitive, Allosteric Binding Mode” (Journal of Medicinal Chemistry, 2022)

Experiments:
[1] = molecular target: ABL (Homo sapiens, UniProt P00519); assay: Kinase panel, radiometric 33P filter binding; type: biochemical
Excerpt: (§1) Kinase % activity remaining s.d.

[2] = molecular target: CDK9-Cyclin T1 (Homo sapiens, UniProt P50750); assay: Kinase panel, radiometric 33P filter binding; type: biochemical; details: CDK9-Cyclin T1, 10 μM
Excerpt: as §1

[3] = molecular target: SmMLCK (Homo sapiens, UniProt Q15746); assay: Kinase panel, radiometric 33P filter binding; type: biochemical
Excerpt: as §1

[4] = molecular target: JNK2 (Homo sapiens, UniProt P45984); assay: Kinase panel, radiometric 33P filter binding; details: read-out: % activity remaining
Excerpt: (§2) filter binding assay using 33P-g-ATPat the MRC PPU International Centre for Kinase Profiling, University of

[5] = molecular target: PKA (Homo sapiens, UniProt P17612); assay: Kinase panel, radiometric 33P filter binding; details: read-out: % activity remaining
Excerpt: as §2

[6] = molecular target: ROCK 2 (Rattus norvegicus, UniProt Q62868); assay: Kinase panel, radiometric 33P filter binding; details: read-out: % activity remaining
Excerpt: as §2

[7] = molecular target: PRK2 (Homo sapiens, UniProt Q16513); assay: Kinase panel, radiometric 33P filter binding; details: read-out: % activity remaining
Excerpt: as §2

[8] = molecular target: MAPKAP-K3 (Homo sapiens, UniProt Q16644); assay: Kinase panel, radiometric 33P filter binding; details: read-out: % activity remaining
[9] = molecular target: CHK2 (Homo sapiens, UniProt O96017); assay: Kinase panel, radiometric 33P filter binding; details: read-out: % activity remaining
Excerpt: as §2

[10] = molecular target: GSK3b (Homo sapiens, UniProt P49841); assay: Kinase panel, radiometric 33P filter binding; details: read-out: % activity remaining
Excerpt: as §2

[11] = molecular target: CDK2-Cyclin A (Homo sapiens, UniProt P24941); assay: Kinase panel, radiometric 33P filter binding; details: read-out: % activity remaining
Excerpt: as §2

[12] = molecular target: LKB1 (Homo sapiens, UniProt Q15831); assay: Kinase panel, radiometric 33P filter binding; details: read-out: % activity remaining
Excerpt: as §2

[13] = molecular target: AMPK (hum) (Homo sapiens, UniProt Q13131); assay: Kinase panel, radiometric 33P filter binding; details: read-out: % activity remaining
Excerpt: as §2

[14] = molecular target: SIK3 (Homo sapiens, UniProt Q9Y2K2); assay: Kinase panel, radiometric 33P filter binding; details: read-out: % activity remaining
Excerpt: as §2

[15] = molecular target: TTBK1 (Homo sapiens, UniProt Q5TCY1); assay: Kinase panel, radiometric 33P filter binding; details: read-out: % activity remaining
Excerpt: as §2

[16] = molecular target: DYRK1A (Homo sapiens, UniProt Q13627); assay: Kinase panel, radiometric 33P filter binding; details: read-out: % activity remaining
Excerpt: as §2

[17] = molecular target: NEK2a (Homo sapiens, UniProt P51955); assay: Kinase panel, radiometric 33P filter binding; details: read-out: % activity remaining
Excerpt: as §2

[18] = molecular target: IKKe (Homo sapiens, UniProt Q14164); assay: Kinase panel, radiometric 33P filter binding; details: read-out: % activity remaining
Excerpt: as §2

[19] = molecular target: PIM1 (Homo sapiens, UniProt P11309); assay: Kinase panel, radiometric 33P filter binding; details: read-out: % activity remaining
Excerpt: as §2

[20] = molecular target: MST4 (Homo sapiens, UniProt Q9P289); assay: Kinase panel, radiometric 33P filter binding; details: read-out: % activity remaining
[21] = molecular target: MAP4K3 (Homo sapiens, UniProt Q8IVH8); assay: Kinase panel, radiometric 33P filter binding; details: read-out: % activity remaining
Excerpt: as §2

[22] = molecular target: MEKK1 (Homo sapiens, UniProt Q13233); assay: Kinase panel, radiometric 33P filter binding; details: read-out: % activity remaining
Excerpt: as §2

[23] = molecular target: TESK1 (Homo sapiens, UniProt Q15569); assay: Kinase panel, radiometric 33P filter binding; details: read-out: % activity remaining
Excerpt: as §2

[24] = molecular target: ASK1 (Homo sapiens, UniProt Q99683); assay: Kinase panel, radiometric 33P filter binding; details: read-out: % activity remaining
Excerpt: as §2

[25] = molecular target: IRAK1 (Homo sapiens, UniProt P51617); assay: Kinase panel, radiometric 33P filter binding; details: read-out: % activity remaining
[26] = molecular target: RIPK2 (Homo sapiens, UniProt O43353); assay: Kinase panel, radiometric 33P filter binding; details: read-out: % activity remaining
[27] = molecular target: TTK (Homo sapiens, UniProt P33981); assay: Kinase panel, radiometric 33P filter binding; details: read-out: % activity remaining
Excerpt: as §2

[28] = molecular target: TGFBR1 (Homo sapiens, UniProt P36897); assay: Kinase panel, radiometric 33P filter binding; details: read-out: % activity remaining
[29] = molecular target: Src (Homo sapiens, UniProt P12931); assay: Kinase panel, radiometric 33P filter binding; details: read-out: % activity remaining
[30] = molecular target: Lck (Homo sapiens, UniProt P06239); assay: Kinase panel, radiometric 33P filter binding; details: read-out: % activity remaining
[31] = molecular target: YES1 (Homo sapiens, UniProt P07947); assay: Kinase panel, radiometric 33P filter binding; details: read-out: % activity remaining
[32] = molecular target: BTK (Homo sapiens, UniProt Q06187); assay: Kinase panel, radiometric 33P filter binding; details: read-out: % activity remaining
[33] = molecular target: ZAP70 (Homo sapiens, UniProt P43403); assay: Kinase panel, radiometric 33P filter binding; details: read-out: % activity remaining
[34] = molecular target: BRK (Homo sapiens, UniProt Q13882); assay: Kinase panel, radiometric 33P filter binding; details: read-out: % activity remaining
Excerpt: as §2

[35] = molecular target: IR (Homo sapiens, UniProt P06213); assay: Kinase panel, radiometric 33P filter binding; details: read-out: % activity remaining
Excerpt: as §2

[36] = molecular target: IRR (Homo sapiens, UniProt P14616); assay: Kinase panel, radiometric 33P filter binding; details: read-out: % activity remaining
Excerpt: as §2

[37] = molecular target: VEG-FR (Homo sapiens, UniProt P17948); assay: Kinase panel, radiometric 33P filter binding; details: read-out: % activity remaining
Excerpt: as §2

[38] = tested on: PI5P4Kγ; set-up: method as in ref 30 (1), ref 23 (2); details: 32P-ATP/PI5P incorporation; ref 30 (1), ref 23 (2); cited from earlier work

Chain of RIPK2 (O43353 whole entry): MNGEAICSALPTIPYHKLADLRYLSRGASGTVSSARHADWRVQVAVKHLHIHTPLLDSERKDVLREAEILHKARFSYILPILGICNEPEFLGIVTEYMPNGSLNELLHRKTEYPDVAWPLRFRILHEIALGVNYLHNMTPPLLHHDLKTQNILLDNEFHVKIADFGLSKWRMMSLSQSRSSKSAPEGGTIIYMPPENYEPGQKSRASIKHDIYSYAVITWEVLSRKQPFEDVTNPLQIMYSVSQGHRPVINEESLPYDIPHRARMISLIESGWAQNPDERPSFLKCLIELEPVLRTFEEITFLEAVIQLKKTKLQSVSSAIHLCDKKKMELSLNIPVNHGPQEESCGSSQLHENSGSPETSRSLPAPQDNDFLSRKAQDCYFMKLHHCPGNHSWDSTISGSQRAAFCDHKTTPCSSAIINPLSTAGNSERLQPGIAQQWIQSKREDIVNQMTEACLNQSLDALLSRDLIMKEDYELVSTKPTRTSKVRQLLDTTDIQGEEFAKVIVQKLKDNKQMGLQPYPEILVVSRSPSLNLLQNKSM
Chain of IKKe (Q14164 whole entry): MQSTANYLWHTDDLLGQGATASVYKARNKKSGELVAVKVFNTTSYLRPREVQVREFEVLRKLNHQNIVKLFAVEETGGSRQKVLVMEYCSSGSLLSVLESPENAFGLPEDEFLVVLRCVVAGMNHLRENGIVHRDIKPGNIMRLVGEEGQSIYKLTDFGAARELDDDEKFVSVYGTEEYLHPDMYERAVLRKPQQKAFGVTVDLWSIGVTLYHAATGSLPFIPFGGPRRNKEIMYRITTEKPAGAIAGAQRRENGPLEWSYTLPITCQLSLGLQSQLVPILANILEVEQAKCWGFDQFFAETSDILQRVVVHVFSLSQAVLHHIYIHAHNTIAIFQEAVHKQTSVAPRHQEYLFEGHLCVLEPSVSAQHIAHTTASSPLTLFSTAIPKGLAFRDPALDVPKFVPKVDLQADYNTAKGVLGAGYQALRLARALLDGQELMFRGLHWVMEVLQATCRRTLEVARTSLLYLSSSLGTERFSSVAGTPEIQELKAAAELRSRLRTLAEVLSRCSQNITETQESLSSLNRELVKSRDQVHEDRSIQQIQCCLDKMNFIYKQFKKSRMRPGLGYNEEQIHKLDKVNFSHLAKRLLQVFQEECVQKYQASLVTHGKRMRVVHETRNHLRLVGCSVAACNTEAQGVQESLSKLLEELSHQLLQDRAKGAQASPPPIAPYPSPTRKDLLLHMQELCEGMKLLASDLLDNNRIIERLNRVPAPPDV
Chain of ABL (P00519 whole entry): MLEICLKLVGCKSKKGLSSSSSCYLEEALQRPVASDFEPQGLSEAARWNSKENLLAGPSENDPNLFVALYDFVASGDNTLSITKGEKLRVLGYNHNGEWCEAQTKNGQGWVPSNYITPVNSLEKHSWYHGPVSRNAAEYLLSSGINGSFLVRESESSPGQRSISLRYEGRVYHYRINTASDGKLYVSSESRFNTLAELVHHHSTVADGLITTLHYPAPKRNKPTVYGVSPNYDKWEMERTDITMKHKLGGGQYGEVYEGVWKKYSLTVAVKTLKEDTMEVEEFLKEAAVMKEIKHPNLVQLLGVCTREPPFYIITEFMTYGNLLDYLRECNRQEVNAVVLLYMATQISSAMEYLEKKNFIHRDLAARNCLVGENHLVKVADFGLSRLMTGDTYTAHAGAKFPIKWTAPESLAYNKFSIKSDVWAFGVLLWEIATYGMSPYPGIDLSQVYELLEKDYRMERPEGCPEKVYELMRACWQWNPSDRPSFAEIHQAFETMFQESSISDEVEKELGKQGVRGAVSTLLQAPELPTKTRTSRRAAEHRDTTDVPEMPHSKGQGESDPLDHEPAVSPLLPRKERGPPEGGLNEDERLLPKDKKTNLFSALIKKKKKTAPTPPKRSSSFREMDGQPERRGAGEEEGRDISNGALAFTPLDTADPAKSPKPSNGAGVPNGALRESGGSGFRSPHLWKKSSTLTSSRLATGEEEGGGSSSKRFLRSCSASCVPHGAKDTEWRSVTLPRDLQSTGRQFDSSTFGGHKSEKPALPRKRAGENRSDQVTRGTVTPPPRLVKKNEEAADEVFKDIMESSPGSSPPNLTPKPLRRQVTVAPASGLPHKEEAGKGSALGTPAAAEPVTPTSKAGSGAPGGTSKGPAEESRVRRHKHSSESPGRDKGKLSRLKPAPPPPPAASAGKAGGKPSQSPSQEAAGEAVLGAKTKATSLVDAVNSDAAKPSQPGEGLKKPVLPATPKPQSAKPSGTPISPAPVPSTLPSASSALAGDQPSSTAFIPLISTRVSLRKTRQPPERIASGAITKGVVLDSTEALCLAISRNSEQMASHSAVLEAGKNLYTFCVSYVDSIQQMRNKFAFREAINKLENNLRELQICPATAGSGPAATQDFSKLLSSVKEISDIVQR
Chain of CHK2 (O96017 whole entry): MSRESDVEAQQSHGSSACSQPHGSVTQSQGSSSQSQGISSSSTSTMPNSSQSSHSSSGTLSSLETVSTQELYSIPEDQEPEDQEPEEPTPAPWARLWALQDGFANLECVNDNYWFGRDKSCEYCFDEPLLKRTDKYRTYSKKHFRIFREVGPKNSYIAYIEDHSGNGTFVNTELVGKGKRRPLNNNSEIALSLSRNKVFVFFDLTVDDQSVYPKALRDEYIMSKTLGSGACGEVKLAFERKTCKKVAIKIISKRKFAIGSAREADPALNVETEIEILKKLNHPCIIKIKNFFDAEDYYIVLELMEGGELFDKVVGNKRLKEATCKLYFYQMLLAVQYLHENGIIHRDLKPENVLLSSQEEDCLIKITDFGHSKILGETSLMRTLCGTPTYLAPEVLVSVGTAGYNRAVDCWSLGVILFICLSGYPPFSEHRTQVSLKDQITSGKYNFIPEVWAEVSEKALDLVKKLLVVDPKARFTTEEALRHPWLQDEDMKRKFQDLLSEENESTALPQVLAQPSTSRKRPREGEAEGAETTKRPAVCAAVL
Chain of YES1 (P07947 whole entry): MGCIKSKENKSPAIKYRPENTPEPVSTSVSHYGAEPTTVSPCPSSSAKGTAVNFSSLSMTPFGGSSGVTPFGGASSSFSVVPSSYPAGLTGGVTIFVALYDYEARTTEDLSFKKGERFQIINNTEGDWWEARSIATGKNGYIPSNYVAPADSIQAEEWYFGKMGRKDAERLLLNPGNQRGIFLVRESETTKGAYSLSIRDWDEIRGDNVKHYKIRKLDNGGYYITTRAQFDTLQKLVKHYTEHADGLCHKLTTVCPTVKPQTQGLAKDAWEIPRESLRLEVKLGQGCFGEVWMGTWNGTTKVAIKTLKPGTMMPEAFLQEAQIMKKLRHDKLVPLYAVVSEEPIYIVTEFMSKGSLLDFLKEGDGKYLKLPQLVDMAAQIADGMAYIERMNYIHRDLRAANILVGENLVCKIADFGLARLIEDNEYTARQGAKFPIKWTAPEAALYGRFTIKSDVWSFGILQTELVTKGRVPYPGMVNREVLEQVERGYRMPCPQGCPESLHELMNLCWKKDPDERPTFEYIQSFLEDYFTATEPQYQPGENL
Chain of PIM1 (P11309 whole entry): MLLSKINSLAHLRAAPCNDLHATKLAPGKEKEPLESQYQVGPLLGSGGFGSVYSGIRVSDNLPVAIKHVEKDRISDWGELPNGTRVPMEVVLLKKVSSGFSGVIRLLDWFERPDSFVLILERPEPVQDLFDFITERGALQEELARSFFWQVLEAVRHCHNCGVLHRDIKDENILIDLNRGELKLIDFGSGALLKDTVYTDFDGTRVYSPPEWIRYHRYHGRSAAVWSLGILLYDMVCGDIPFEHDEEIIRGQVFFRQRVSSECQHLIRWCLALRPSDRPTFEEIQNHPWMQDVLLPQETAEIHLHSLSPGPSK
Chain of IRR (P14616 27-1297): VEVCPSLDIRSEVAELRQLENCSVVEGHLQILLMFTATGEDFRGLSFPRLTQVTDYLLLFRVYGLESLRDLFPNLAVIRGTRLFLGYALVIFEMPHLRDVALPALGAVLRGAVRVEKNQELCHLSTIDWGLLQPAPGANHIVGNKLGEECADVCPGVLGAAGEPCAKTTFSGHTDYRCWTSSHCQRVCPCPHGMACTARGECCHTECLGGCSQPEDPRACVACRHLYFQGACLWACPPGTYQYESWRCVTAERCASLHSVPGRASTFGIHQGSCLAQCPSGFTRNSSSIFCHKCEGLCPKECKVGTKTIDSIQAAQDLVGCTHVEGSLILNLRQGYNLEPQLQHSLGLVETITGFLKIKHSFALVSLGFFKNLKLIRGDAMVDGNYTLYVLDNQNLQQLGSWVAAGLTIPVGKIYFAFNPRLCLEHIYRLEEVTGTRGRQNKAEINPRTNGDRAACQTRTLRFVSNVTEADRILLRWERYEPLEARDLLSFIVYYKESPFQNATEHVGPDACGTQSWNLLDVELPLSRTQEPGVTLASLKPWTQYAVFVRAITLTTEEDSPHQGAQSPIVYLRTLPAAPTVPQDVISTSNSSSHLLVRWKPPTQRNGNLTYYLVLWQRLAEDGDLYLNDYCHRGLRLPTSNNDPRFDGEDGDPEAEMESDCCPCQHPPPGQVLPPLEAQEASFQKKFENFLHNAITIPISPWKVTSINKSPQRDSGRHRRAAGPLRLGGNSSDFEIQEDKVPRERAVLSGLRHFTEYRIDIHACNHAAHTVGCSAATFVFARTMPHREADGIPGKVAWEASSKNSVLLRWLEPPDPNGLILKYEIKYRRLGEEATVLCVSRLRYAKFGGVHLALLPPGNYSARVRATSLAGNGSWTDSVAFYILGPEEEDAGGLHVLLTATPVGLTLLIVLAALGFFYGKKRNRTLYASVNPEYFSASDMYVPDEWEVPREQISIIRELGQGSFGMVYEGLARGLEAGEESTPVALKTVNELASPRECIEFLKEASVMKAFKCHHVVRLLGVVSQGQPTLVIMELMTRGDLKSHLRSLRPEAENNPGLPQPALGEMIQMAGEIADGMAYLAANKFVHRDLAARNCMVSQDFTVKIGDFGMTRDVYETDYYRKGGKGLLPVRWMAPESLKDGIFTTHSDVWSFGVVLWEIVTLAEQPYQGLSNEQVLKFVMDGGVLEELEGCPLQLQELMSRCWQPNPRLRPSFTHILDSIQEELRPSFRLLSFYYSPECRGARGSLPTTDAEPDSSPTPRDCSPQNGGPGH

For `CC(C)c1ccccc1-c1nc(NCc2ccccn2)c2c(ccn2C)n1` [Compound 40], the remaining activity at 10 µM [1] was 108%, the remaining activity at 10 µM [2] was 108% and the remaining activity at 10 µM [3] was 108%. The remaining activity at 10 µM [4] was 110%, the remaining activity at 10 µM [5] was 109% and the remaining activity at 10 µM [6] was 97%. It also gave a remaining activity at 10 µM [7] of 83%, a remaining activity at 10 µM [8] of 102% and a remaining activity at 10 µM [9] of 110%. The remaining activity at 10 µM [10] was 93%, the remaining activity at 10 µM [11] was 103% and the remaining activity at 10 µM [12] was 94%. For the same compound, the remaining activity at 10 µM [13] was 88%, the remaining activity at 10 µM [14] was 111% and the remaining activity at 10 µM [15] was 117%. The remaining activity at 10 µM [16] was 101%, the remaining activity at 10 µM [17] was 103% and the remaining activity at 10 µM [18] was 98%. The remaining activity at 10 µM [19] was 102%, the remaining activity at 10 µM [20] was 110% and the remaining activity at 10 µM [21] was 91%. It also gave a remaining activity at 10 µM [22] of 68%, a remaining activity at 10 µM [23] of 114% and a remaining activity at 10 µM [24] of 116%. The remaining activity at 10 µM [25] was 114%, the remaining activity at 10 µM [26] was 92% and the remaining activity at 10 µM [27] was 94%. It also gave a remaining activity at 10 µM [28] of 91%, a remaining activity at 10 µM [29] of 135% and a remaining activity at 10 µM [30] of 102%. It also gave a remaining activity at 10 µM [31] of 115%, a remaining activity at 10 µM [32] of 111% and a remaining activity at 10 µM [33] of 95%. For the same compound, the remaining activity at 10 µM [34] was 112%, the remaining activity at 10 µM [35] was 119% and the remaining activity at 10 µM [36] was 99%. It also gave a remaining activity at 10 µM [37] of 125%.

For `FC(F)(F)c1ccccc1-c1nc(NCc2cccs2)c2ccccc2n1` [Compound 1, NIH-12848, reference compound], the IC50 [38] is listed as 2000 to 3000 nM.
